These results are taken from US20110053949A1, “4-[3-(ARYLOXY)BENZYLIDENE]-3-METHYL PIPERIDINE ARYL CARBOXAMIDE COMPOUNDS USEFUL AS FAAH INHIBITORS” (PFIZER INC., priority 2008, published 2011).

In one experiment the target is T1, Human FAAH (Homo sapiens, UniProt O00519).
T1 construct: made in house
T1 sequence (O00519 1-579): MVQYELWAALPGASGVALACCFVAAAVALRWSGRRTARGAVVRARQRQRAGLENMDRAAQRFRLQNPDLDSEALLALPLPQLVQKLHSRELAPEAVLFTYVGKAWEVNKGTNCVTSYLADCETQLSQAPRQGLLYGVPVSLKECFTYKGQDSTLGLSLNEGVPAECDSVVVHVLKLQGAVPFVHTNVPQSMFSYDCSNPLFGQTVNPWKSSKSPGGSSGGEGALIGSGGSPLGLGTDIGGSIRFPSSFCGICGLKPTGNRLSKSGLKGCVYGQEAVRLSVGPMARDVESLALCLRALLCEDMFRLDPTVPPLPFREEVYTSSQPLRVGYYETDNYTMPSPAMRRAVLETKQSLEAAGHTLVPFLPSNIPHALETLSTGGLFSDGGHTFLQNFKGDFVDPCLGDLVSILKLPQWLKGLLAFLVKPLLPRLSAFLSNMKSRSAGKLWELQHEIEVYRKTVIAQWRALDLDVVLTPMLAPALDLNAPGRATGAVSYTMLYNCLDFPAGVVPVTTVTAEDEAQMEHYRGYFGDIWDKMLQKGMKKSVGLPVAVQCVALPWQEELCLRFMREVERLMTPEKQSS
Description: FAAH enzyme assay (glutamate dehydrogenase coupled, oleamide substrate), irreversible inhibition kinetics. The experiment is classed as biochemical. As to conditions: human FAAH, 30° C., pH 7.4. The procedure: A FAAH enzyme assay may be carried out as described in WO2006/085196 in 384-well clear polystyrene plates in a total volume of 50 μl per well. All percents are by volume. To each well was placed the reaction mixture (40 μl) containing 1-4 nM FAAH, 50 mM NaPi, pH 7.4, 3 mM α-ketoglutarate, 0.15 mM NADH, 7.5 U/ml glutamate dehydrogenase, 2 mM ADP, 1 mM EDTA, and 0.1% Triton X-100 (The concentration shown for each component is the final concentration in the assay). To this mixture was added 5 μl of a compound of Examples 1 to 20 at various concentrations prepared in 50% DMSO (or 5 μl 50% DMSO for controls). This was immediately followed by the addition of 5 μl oleamide (500 μM) dissolved in 75% EtOH/25% DMSO and the reaction mixture is mixed for 1.5 min. The final concentrations of DMSO and EtOH in the assay were each 7.5%. The reactions was then incubated at 30° C. and the absorbance at 340 nm was collected over a period of 90 min with readings taken in 30-second intervals using SpectraMax Plus^384 Microplate Spectrophotometer (Molecular Devices, Sunnyvale, Calif.). Human FAAH used in the assay was prepared as described in the patent application WO 2006/067613. The purity of the enzyme used was greater than 98% based on an analysis by SDS-polyacrylamide gel electrophoresis followed by Coomassie Blue staining.
Initial velocity data (V) is obtained from the slopes of the initial progressive curves. They are plotted as a function of substrate concentration and fit to the Michaelis-Menten equation (1) using Prism (GraphPad Software, Inc., San Diego, Calif.) software to obtain Km and Vmax values.
To obtain potencies of irreversible inhibitors, progressive curves consistent with first order inhibition kinetics (two-step irreversible inhibition mechanism) are fit to equation (2) by nonlinear least squares regressions to determine kobs values at each inhibitor concentration, where [P]t is the absorbance at time t, V0 is a constant related to the steady state rate of the uninhibited reaction, and kobs is the first order rate constant for enzyme inactivation. The inhibitor dissociation constant (Ki) and the first order rate
(2) constant of enzyme inactivation at infinite inhibitor concentration (kinact) are then obtained by fitting the kobs vs. [I] curves to equation (3).
For the compound `CC1CN(C(=O)Nc2cccnc2)CC/C1=C\c1cccc(Oc2ncc(C(F)(F)F)cn2)c1` (single isomer, unassigned) [Example 17, (4E)-3-methyl-N-pyridin-3-yl-4-(3-{[5-(trifluoromethyl)pyrimidin-2-yl]oxy}benzylidene)piperidine-1-carboxamide], the “hFAAH Kinact/Ki” value is less than 15.5 M⁻¹ s⁻¹.
Same read-out and setting: as for “(4E)-N-(6-methoxypyridazin-3-yl)-3-methyl-4-(3-{[5-(trifluoromethyl)pyridin-2-yl]oxy}benzylidene)piperidine-1-carboxamide [Example 12]”, the figure is 2500 M⁻¹ s⁻¹.
Consider `CC1CN(C(=O)Nc2cccnc2)CC/C1=C\c1cccc(Oc2ccc(C(F)(F)F)cn2)c1` (single isomer, unassigned) [Example 3, (4E)-3-methyl-N-pyridin-3-yl-4-(3-{[5-(trifluoromethyl)pyridin-2-yl]oxy}benzylidene)piperidine-1-carboxamide], for which the “hFAAH Kinact/Ki” value stood at 4890 M⁻¹ s⁻¹.
As for `CC1CN(C(=O)Nc2cccnc2)CC/C1=C\c1cccc(Oc2ccc(C(F)(F)F)cn2)c1` (single isomer, unassigned) [Example 4, (4E)-3-methyl-N-pyridin-3-yl-4-(3-{[5-(trifluoromethyl)pyridin-2-yl]oxy}benzylidene)piperidine-1-carboxamide], the “hFAAH Kinact/Ki” value is 71.4 M⁻¹ s⁻¹.
Same read-out and setting: the figure for `CC1CN(C(=O)Nc2cccnn2)CC/C1=C\c1cccc(Oc2ccc(C(F)(F)F)cn2)c1` (single isomer, unassigned) [Example 2, (4E)-3-methyl-N-pyridazin-3-yl-4-(3-{[5-(trifluoromethyl)pyridin-2-yl]oxy}benzylidene)piperidine-1-carboxamide] is 254 M⁻¹ s⁻¹; for “(4E)-N-1,2-benzisoxazol-3-yl-3-methyl-4-(3-{[5-(trifluoromethyl)pyridin-2-yl]oxy}benzylidene)piperidine-1-carboxamide [Example 13]” it is 733 M⁻¹ s⁻¹; for `CC1CN(C(=O)Nc2cccnc2)CC/C1=C\c1cccc(Oc2ncc(C(F)(F)F)cn2)c1` (single isomer, unassigned) [Example 16, (4E)-3-methyl-N-pyridin-3-yl-4-(3-{[5-(trifluoromethyl)pyrimidin-2-yl]oxy}benzylidene)piperidine-1-carboxamide] it is 6930 M⁻¹ s⁻¹.
On the same count and under the same terms, as for `CC1CN(C(=O)Nc2cccnn2)CC/C1=C\c1cccc(Oc2ccc(C(F)(F)F)cn2)c1` (single isomer, unassigned) [Example 1, (4E)-3-methyl-N-pyridazin-3-yl-4-(3-{[5-(trifluoromethyl)pyridin-2-yl]oxy}benzylidene)piperidine-1-carboxamide], the figure is 4590 M⁻¹ s⁻¹.

Staying with this experiment, now noted: pH 7.4, human FAAH, 30° C., read-out: hFAAH Kinact/Ki.
For the compound `Cc1cnc(NC(=O)N2CC/C(=C\c3cccc(Oc4ccc(C(F)(F)F)cn4)c3)C(C)C2)cn1` (single isomer, unassigned) [Example 10, (4E)-3-methyl-N-(5-methylpyrazin-2-yl)-4-(3-{[5-(trifluoromethyl)pyridin-2-yl]oxy}benzylidene)piperidine-1-carboxamide], the kinact/KI was found to be 3390 M⁻¹ s⁻¹.
With `CC1CN(C(=O)Nc2cnc3[nH]ccc3c2)CC/C1=C\c1cccc(Oc2ccc(C(F)(F)F)cn2)c1` (single isomer, unassigned) [Example 6, (4E)-3-methyl-N-1H-pyrrolo[2,3-b]pyridin-5-yl-4-(3-{[5-(trifluoromethyl)pyridin-2-yl]oxy}benzylidene)piperidine-1-carboxamide], the kinact/KI worked out at 1420 M⁻¹ s⁻¹.
The same measure, in the same setting: the figure for `Cc1cncc(NC(=O)N2CC/C(=C\c3cccc(Oc4ccc(C(F)(F)F)cn4)c3)C(C)C2)c1` (single isomer, unassigned) [Example 7, (4E)-3-methyl-N-(5-methylpyridin-3-yl)-4-(3-{[5-(trifluoromethyl)pyridin-2-yl]oxy}benzylidene)piperidine-1-carboxamide] is 1290 M⁻¹ s⁻¹; for `COc1cnc(NC(=O)N2CC/C(=C\c3cccc(Oc4ccc(C(F)(F)F)cn4)c3)C(C)C2)cn1` (single isomer, unassigned) [Example 9, (4E)-N-(5-methoxypyrazin-2-yl)-3-methyl-4-(3-{[5-(trifluoromethyl)pyridin-2-yl]oxy}benzylidene)piperidine-1-carboxamide] it is 2390 M⁻¹ s⁻¹; for `COc1ccc(NC(=O)N2CC/C(=C\c3cccc(Oc4ccc(C(F)(F)F)cn4)c3)C(C)C2)cn1` (single isomer, unassigned) [Example 5, (4E)-N-(6-methoxypyridin-3-yl)-3-methyl-4-(3-{[5-(trifluoromethyl)pyridin-2-yl]oxy}benzylidene)piperidine-1-carboxamide] it is 2850 M⁻¹ s⁻¹.
Same read-out and setting: the figure for `CC1CN(C(=O)Nc2ccc(C#N)nc2)CC/C1=C\c1cccc(Oc2ccc(C(F)(F)F)cn2)c1` (single isomer, unassigned) [Example 8, (4E)-N-(6-cyanopyridin-3-yl)-3-methyl-4-(3-{[5-(trifluoromethyl)pyridin-2-yl]oxy}benzylidene)piperidine-1-carboxamide] is 2460 M⁻¹ s⁻¹.
The same measure, in the same setting: the figure for `COc1cncc(NC(=O)N2CC/C(=C\c3cccc(Oc4ccc(C(F)(F)F)cn4)c3)C(C)C2)n1` (single isomer, unassigned) [Example 11, (4E)-N-(6-methoxypyrazin-2-yl)-3-methyl-4-(3-{[5-(trifluoromethyl)pyridin-2-yl]oxy}benzylidene)piperidine-1-carboxamide] is 1880 M⁻¹ s⁻¹; for `CC1CN(C(=O)Nc2cccnc2)CC/C1=C\c1cccc(Oc2ccc(Cl)cn2)c1` (racemic) [Example 15, (4E)-4-{3-[(5-chloropyridin-2-yl)oxy]benzylidene}-3-methyl-N-pyridin-3-ylpiperidine-1-carboxamide] it is 4170 M⁻¹ s⁻¹.
In the case of `CC1CN(C(=O)Nc2cccnc2)CC/C1=C\c1cccc(Oc2ccc(Br)cn2)c1` (racemic) [Example 14, (4E)-4-{3-[(5-bromopyridin-2-yl)oxy]benzylidene}-3-methyl-N-pyridin-3-ylpiperidine-1-carboxamide], the kinact/KI turned out to be 747 M⁻¹ s⁻¹.

The target in the next experiment is T2, rFAAH (Rattus norvegicus, UniProt P97612).
T2 sequence (P97612 1-579): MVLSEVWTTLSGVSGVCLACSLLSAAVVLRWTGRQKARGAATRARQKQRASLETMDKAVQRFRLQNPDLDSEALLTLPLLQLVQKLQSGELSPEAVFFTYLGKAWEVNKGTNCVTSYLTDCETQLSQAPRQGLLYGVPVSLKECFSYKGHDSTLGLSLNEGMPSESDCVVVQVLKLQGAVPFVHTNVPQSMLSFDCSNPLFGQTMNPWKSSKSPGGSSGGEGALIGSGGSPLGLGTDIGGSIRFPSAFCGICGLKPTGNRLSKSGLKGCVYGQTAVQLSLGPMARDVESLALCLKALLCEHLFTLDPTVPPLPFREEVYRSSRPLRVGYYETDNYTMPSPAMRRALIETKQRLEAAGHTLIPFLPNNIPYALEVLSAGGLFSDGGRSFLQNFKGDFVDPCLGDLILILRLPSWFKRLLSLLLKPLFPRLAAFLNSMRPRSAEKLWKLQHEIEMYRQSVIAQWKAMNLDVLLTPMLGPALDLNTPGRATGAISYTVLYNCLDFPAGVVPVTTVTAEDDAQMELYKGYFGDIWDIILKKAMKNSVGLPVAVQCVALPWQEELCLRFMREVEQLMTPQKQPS
Description: FAAH_KINACTR rFAAH kobs/I. In kind it is biochemical. As to conditions: further data table, substances given by IUPAC name only.
For `CC1CN(C(=O)Nc2cccnn2)CC/C1=C\c1cccc(Oc2ccc(C(F)(F)F)cn2)c1` (stereo not drawn) [(4E)-3-methyl-N-pyridazin-3-yl-4-(3-{[5-(trifluoromethyl)pyridin-2-yl]oxy}benzylidene)piperidine-1-carboxamide], the “FAAH_KINACTR:rFAAH:kobs/I” value was 3730.
